Experimental data reported in patent US10874682B2, “Compositions and the use thereof for treating or preventing rosacea” (NESTLÉ SKIN HEALTH SA, priority 2016, dated 2020).

Tested on: arachidonic acid-induced ear edema
Experiment: Arachidonic acid-induced mouse ear edema test, single topical application
Format: in vivo, Balb/c mice
Design: Mean ear edema: unit not given here
Settings: indomethacin 5%, ivermectin 1%, diclofenac 1%; for Mean ear edema: single topical application on right ear with AA 4%; for Inhibition vs AA 4%: single topical application with AA 4%
Procedure: Example 1: Evaluation of the Anti-Inflammatory Activity of Ivermectin and Diclofenac after a Single Topical Application in the Arachidonic Acid-Induced Mouse Ear Edema Test on Balb/c Mice
Arachidonic acid is dissolved in a mixture of THF/Methanol at 4%.
Tested compounds were dissolved in arachidonic acid solution, at final concentration.
20 μl of the tested compound is dissolved in arachidonic acid solution and applied on the internal side of the right ear.
The ear thickness is measured at T=0 h, T+1 h, T+2 h, T+4 h.
THF/Methanol is used as vehicle control.
Indomethacin 5% is used as positive control and arachidonic acid at 4% in THF/Methanol is used as inductor of inflammation.

[1] = ear thickness measurement after 1 h
[2] = ear thickness measurement after 2 h
[3] = ear thickness measurement after 4 h

| Compound | Mean ear edema (1 h measurement) | Inhibition vs AA 4% (1 h measurement) | Mean ear edema (2 h measurement) | Inhibition vs AA 4% (2 h measurement) | Mean ear edema (4 h measurement) | Inhibition vs AA 4% (4 h measurement) | inhibition of the ear edema caused by arachidonic acid [1] | inhibition of the ear edema caused by arachidonic acid [2] | inhibition of the ear edema caused by arachidonic acid [3] |
| --- | --- | --- | --- | --- | --- | --- | --- | --- | --- |
| COc1ccc2c(c1)c(CC(=O)O)c(C)n2C(=O)c1ccc(Cl)cc1 [indomethacin] | 1 | 94.7 | 1 | 93.8 | 1 | 92.5 | 95% | 94% | 92.5% |
| CCCCC/C=C\C/C=C\C/C=C\C/C=C\CCCC(=O)O [Arachidonic acid (AA), Arachidonic acid] | 18.8 |  | 16.2 |  | 13.4 |  |  |  |  |
| ivermectin | 8.2 | 56.4 | 8.6 | 46.9 | 6.2 | 53.7 | 56% | 47% | 54% |
| O=C(O)Cc1ccccc1Nc1c(Cl)cccc1Cl [diclofenac, 2-(2-(2,6-dichlorophenylamino)phenyl)acetic acid] | 6 | 68.1 | 4 | 75.3 | 3 | 77.6 | 68% | 75% | 78% |
